The numbers were not newly measured in patent US6710179B2, “Compounds with analgesic effect” (AstraZeneca Canada Inc., priority 1996, dated 2004), which cites them from elsewhere.

The conditions of data set [1]: non-peptidic δ antagonists; prior art statement.
The target of the next data set is δ receptor (Homo sapiens, UniProt P41143). The following applies: non-peptidic δ antagonists; review Takemori and Portoghese 1992.
Sequence of δ receptor (P41143 whole entry): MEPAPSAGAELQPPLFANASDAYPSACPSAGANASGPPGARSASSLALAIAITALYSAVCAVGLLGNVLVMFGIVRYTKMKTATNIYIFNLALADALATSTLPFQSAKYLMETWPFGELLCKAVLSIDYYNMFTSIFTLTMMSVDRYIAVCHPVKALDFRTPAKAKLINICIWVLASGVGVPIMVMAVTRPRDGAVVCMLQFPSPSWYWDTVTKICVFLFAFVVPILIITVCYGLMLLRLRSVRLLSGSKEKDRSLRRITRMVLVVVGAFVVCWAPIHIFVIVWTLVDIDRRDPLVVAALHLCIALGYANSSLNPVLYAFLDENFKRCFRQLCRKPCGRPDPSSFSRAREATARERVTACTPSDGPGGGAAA

As for `Oc1ccc2c3c1O[C@H]1c4[nH]c5ccccc5c4C[C@@]4(O)[C@@H](C2)N(CC2CC2)CC[C@]314` [naltrindole], in data set [1], the analgesic activity entry was “no analgesic activity”. Also, the “selectivity for the δ receptor vs. μ receptor binding” value at δ receptor is recorded as less than 10 fold.
